Reference: US20060217395A1, “Combinations of paroxetine and 4- (s) - (4-acetyl-piperazin-1-yl) -2- (r)- (4-fluoro-2-methyl- phenyl -piperidine-1-carboxylic acid [1- (r) (3,5-bis-trifluoromethyl-phenyl) -ethyl] methylamide for treatment of depression and / or anxiety” (GLAXO GROUP LIMITED, priority 2003, published 2006)
Counter-ions that a name gives are not always drawn.

Tested on: mongolian gerbils
Assay: gerbil social interaction model (social stress assay)
Format: in vivo
Conditions: one hour after administration
Experimental: Paroxetine hydrochloride hemihydrate (0.03 mg/kg p.o of the paroxetine measured as the free base), 4-(S)-(4-Acetyl-piperazin-1-yl)-2-(R)-(4-fluoro-2-methyl-phenyl)-piperidine-1-carboxylic acid [1-(R)-(3,5-bis-trifluoromethyl-phenyl)-ethyl]-methylamide methansulphonate (hereinafter compound A) (0.03 mg/kg i.p of the compound A measured as the free base) and a combination of paroxetine (0.03 mg/kg p.o. of the paroxetine measured as the free base) and compound A (0.03 mg/kg i.p. of the compound A measured as the free base) were administered independently in mongolian gerbils to assess the effect on time spent in active social interactions.
The results obtained one hour after administration, expressed as a percentage variation of the time spent in active social interactions by each animal in respect to the value obtained by treatment of control animals, are summarised in table 1.

Structure (SMILES)	% variation of the time spent in active social interactions in respect to control animals (0.03 mg/kg i.p. (measured as the free base))	% variation of the time spent in active social interactions in respect to control animals (0.03 mg/kg p.o. (measured as the free base))
CC(=O)N1CCN([C@H]2CCN(C(=O)N(C)[C@H](C)c3cc(C(F)(F)F)cc(C(F)(F)F)c3)[C@@H](c3ccc(F)cc3C)C2)CC1.CS(=O)(=O)O [Compound A, 4-(S)-(4-Acetyl-piperazin-1-yl)-2-(R)-(4-fluoro-2-methyl-phenyl)-piperidine-1-carboxylic acid [1-(R)-(3,5-bis-trifluoromethyl-phenyl)-ethyl]-methylamide methansulphonate]	20.7%	
Fc1ccc([C@@H]2CCNC[C@H]2COc2ccc3c(c2)OCO3)cc1 [Paroxetine hydrochloride hemihydrate, (−)trans-4-(4′-fluorophenyl)3-(3′-4′-methylenedioxyphenoxymethyl) piperidine]		−2.4%
